Results reported in the supplement of paper PMC10307832.

How the values were obtained:
Experiment in all cases: relative viability (nuclei count vs DMSO), 5 days (fraction); higher = more cells survive
RO-3306 + Phenformin = compound: C1=CC2=C(C=CC(=C2)C=C3C(=O)NC(=NCC4=CC=CS4)S3)N=C1 [RO-3306] + N=C(N)NC(=N)NCCc1ccccc1 [Phenformin] (partner 250 µM)
In short: (§1)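 Relative viability was taken as the ratio of nuclei in treated wells to nuclei in vehicle wells. Lung cancer cell lines in 1536-well plates received compounds by pin tool one day after seeding, either one drug alone or a fixed anchor-drug dose plus five library-drug doses (not always all listed) in √10 steps. Nuclei were counted on 4× images after 5 days of treatment, and values are medians of duplicate plates.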

RO-3306 + Decitabine = compound: C1=CC2=C(C=CC(=C2)C=C3C(=O)NC(=NCC4=CC=CS4)S3)N=C1 [RO-3306] + Nc1ncn([C@H]2C[C@H](O)[C@@H](CO)O2)c(=O)n1 [Decitabine] (partner 2 µM)
In short: as §1

[1] = compound: O=S(=O)(c1ccccc1)N(CC(F)(F)F)c1ccc(C(O)(C(F)(F)F)C(F)(F)F)cc1 + Nc1ncn([C@H]2C[C@H](O)[C@@H](CO)O2)c(=O)n1 [Decitabine] (partner 2 µM)
In short: as §1

RO-3306 + Linsitinib = compound: C1=CC2=C(C=CC(=C2)C=C3C(=O)NC(=NCC4=CC=CS4)S3)N=C1 [RO-3306] + C[C@]1(O)C[C@@H](c2nc(-c3ccc4ccc(-c5ccccc5)nc4c3)c3c(N)nccn32)C1 [Linsitinib] (partner 1 µM)
In short: as §1

Cell Line | relative viability (RO-3306 + Phenformin; first compound 0.01 µM) | relative viability (RO-3306 + Phenformin; first compound 0.03162 µM) | relative viability (RO-3306 + Phenformin; first compound 0.1 µM) | relative viability (RO-3306 + Phenformin; first compound 0.3162 µM) | relative viability (RO-3306 + Phenformin; first compound 1 µM) | relative viability (RO-3306 + Decitabine; first compound 0.01 µM) | relative viability (RO-3306 + Decitabine; first compound 0.03162 µM) | relative viability (RO-3306 + Decitabine; first compound 0.1 µM) | relative viability (RO-3306 + Decitabine; first compound 0.3162 µM) | relative viability (RO-3306 + Decitabine; first compound 1 µM) | relative viability ([1]; first compound 0.8 µM) | relative viability ([1]; first compound 2.53 µM) | relative viability ([1]; first compound 8 µM) | relative viability (RO-3306 + Linsitinib; first compound 0.01 µM) | relative viability (RO-3306 + Linsitinib; first compound 0.03162 µM) | relative viability (RO-3306 + Linsitinib; first compound 0.1 µM) | relative viability (RO-3306 + Linsitinib; first compound 0.3162 µM) | relative viability (RO-3306 + Linsitinib; first compound 1 µM)
NCI-H2087 | 0.526 | 0.332 | 0.423 | 0.489 | 0.372 | 0.296 | 0.276 | 0.253 | 0.251 | 0.25 | 0.305 | 0.327 | 0.301 | 0.977 | 0.982 | 1.06 | 1.05 | 0.928
SK-MES-1 | 0.73 | 0.605 | 0.711 | 0.621 | 0.625 | 0.341 | 0.406 | 0.327 | 0.352 | 0.371 | 0.375 | 0.337 | 0.366 | 1.14 | 0.859 | 1.16 | 1.16 | 1.15
HCC-827 | 0.406 | 0.308 | 0.407 | 0.381 | 0.408 | 0.339 | 0.316 | 0.345 | 0.379 | 0.289 | 0.364 | 0.375 | 0.269 | 1.01 | 0.916 | 0.99 | 0.959 | 0.992
NCI-H520 | 0.562 | 0.422 | 0.425 | 0.491 | 0.588 | 0.568 | 0.542 | 0.469 | 0.501 | 0.554 | 0.457 | 0.478 | 0.493 | 1.05 | 0.872 | 0.82 | 1.2 | 0.824
NCI-H1944 | 0.206 | 0.182 | 0.2 | 0.168 | 0.194 | 0.424 | 0.432 | 0.424 | 0.453 | 0.376 | 0.461 | 0.456 | 0.483 | 1.22 | 1.07 | 1.08 | 1.36 | 1.17
NCI-H1395 | 0.377 | 0.479 | 0.421 | 0.46 | 0.459 | 0.663 | 0.699 | 0.656 | 0.68 | 0.724 | 0.712 | 0.741 | 0.815 | 1.1 | 0.954 | 1.06 | 1.02 | 1.04
NCI-H2009 | 0.52 | 0.455 | 0.49 | 0.483 | 0.494 | 0.385 | 0.373 | 0.351 | 0.382 | 0.371 | 0.366 | 0.372 | 0.369 | 1.22 | 1.12 | 1.18 | 1.23 | 1.23
RERF-LC-KJ | 0.428 | 0.445 | 0.416 | 0.445 | 0.407 | 0.763 | 0.715 | 0.689 | 0.75 | 0.665 | 0.752 | 0.701 | 0.687 | 0.956 | 0.831 | 0.902 | 0.974 | 1
NCI-H650 | 0.408 | 0.411 | 0.445 | 0.467 | 0.457 | 0.292 | 0.33 | 0.283 | 0.259 | 0.352 | 0.339 | 0.312 | 0.288 | 0.598 | 0.672 | 0.721 | 0.859 | 0.748
NCI-H3122 | 0.419 | 0.612 | 0.397 | 0.391 | 0.665 | 0.406 | 0.345 | 0.379 | 0.461 | 0.42 | 0.301 | 0.385 | 0.421 | 1.1 | 0.995 | 1.02 | 0.981 | 1.03
LCLC-103H | 0.36 | 0.27 | 0.298 | 0.342 | 0.328 | 0.772 | 0.651 | 0.695 | 0.768 | 0.713 | 0.739 | 0.743 | 0.734 | 1.03 | 0.934 | 1.16 | 1.05 | 1.05
NCI-H2347 | 0.347 | 0.374 | 0.384 | 0.485 | 0.384 | 0.643 | 0.597 | 0.592 | 0.574 | 0.645 | 0.657 | 0.614 | 0.66 | 1.01 | 0.877 | 0.999 | 1.01 | 0.795
NCI-H322M | 0.768 | 0.661 | 0.724 | 0.777 | 0.791 | 0.591 | 0.675 | 0.721 | 0.717 | 0.762 | 0.685 | 0.721 | 0.663 | 0.978 | 0.709 | 0.923 | 1.02 | 1.03
NCI-H596 | 0.77 | 0.63 | 0.799 | 0.758 | 0.966 | 0.985 | 0.805 | 0.882 | 1.02 | 0.891 | 1.04 | 0.899 | 1.05 | 0.954 | 0.903 | 1.15 | 1.04 | 1.04
NCI-H647 | 0.682 | 0.304 | 0.449 | 0.582 | 0.392 | 0.479 | 0.336 | 0.417 | 0.429 | 0.405 | 0.502 | 0.437 | 0.353 | 1.43 | 1.07 | 1.21 | 1.29 | 1.07
A549 | 0.225 | 0.802 | – | 0.124 | 1.12 | 0.284 | – | 0.245 | 0.254 | 0.36 | 0.411 | 0.292 | 0.201 | 0.762 | 0.305 | 0.622 | 0.69 | 0.623
NCI-H1666 | 0.561 | 0.55 | 0.515 | 0.54 | 0.552 | 0.729 | 0.75 | 0.736 | 0.711 | 0.641 | 0.697 | 0.661 | 0.684 | 0.829 | 0.693 | 0.684 | 0.823 | 0.834
LOU-NH91 | 0.808 | 0.709 | 0.681 | 0.649 | 0.694 | 0.829 | 0.787 | 0.796 | 0.823 | 0.79 | 0.846 | 0.823 | 0.894 | 0.982 | 0.899 | 0.982 | 0.864 | 0.899
